From patent US4735963A, “Anti-platelet aggregating 1,3-oxathiane derivatives, compositions, and method of use therefor” (Imperial Chemical Industries PLC, priority 1985, dated 1988)

Tested on: TXA2
Experiment: rabbit aortal strip model, test (a)
Format: cell-based
Conditions: agonist TXA2 or U46619
Description: (a) The rabbit aortal strip model devised by Piper and Vane (Nature, 1969, 223, 29-35) using as agonist a freshly prepared sample of TXA2, generated by addition of arachidonic acid (25 μg) to citrated, platelet rich rabbit plasma (250 μl) and allowing the mixture to aggregate fully over 90 seconds before use; alternatively the TXA2 mimetic agent known as U46619 (described by R L Jones et alia, in "Chemistry, Biochemistry and Pharmacological Activity of Prostanoids" edited by S M Roberts and F Scheinmann, at page 211, Pergamon Press, 1979) may be used as the agonist;

Structure (SMILES): CC1(C)O[C@@H](c2ccccc2O)[C@@H](C/C=C\CCCC(=O)O)CS1 (relative stereo) [Example 1, 5(Z)-7-(6-o-hydroxyphenyl-2,2-dimethyl-1,3-oxathian-cis-5-yl)heptenoic acid]
- pA2 in test (a): 7.42
